Reference: patent US20070128217A1 (priority 2003, published 2007)

How the values were obtained:
[1] = tested on: antibodies in sera from SARS patients (sera 1a, 1b, 2, 6, 37, 62, London, SARS-yellow, SARS-green); assay type: binding, human; set-up: Binding of serum 6 to linear peptides of protein X1 of SARS-CoV Urbani / Binding of serum 37 to linear peptides of protein X1 of SARS-CoV Urbani / Binding of serum 6 to looped/cyclic peptide (PEPSCAN-ELISA) / Binding of serum 37 to looped/cyclic peptide (PEPSCAN-ELISA) / Binding of serum 37 to looped/cyclic peptides of protein X1 of SARS-CoV Urbani / Binding of serum 6 to linear peptides of protein X2 / Binding of serum 37 to linear peptides of protein X2 / Binding of serum 37 to looped/cyclic peptides of protein X2 of SARS-CoV Urbani / Binding of serum 6 to linear peptides of protein M of SARS-CoV Urbani / Binding of serum 37 to linear peptides of protein M of SARS-CoV Urbani / Binding of serum 6 to looped/cyclic peptides of protein M of SARS-CoV Urbani / Binding of serum 37 to looped/cyclic peptides of protein M of SARS-CoV Urbani / Binding of serum 6 to linear peptides of protein X3 of SARS-CoV Urbani / Binding of serum 37 to linear peptides of protein X3 of SARS-CoV Urbani / Binding of serum 37 to looped/cyclic peptides of protein X3 of SARS-CoV Urbani / Binding of serum 6 to linear peptides of protein X4 of SARS-CoV Urbani / Binding of serum 37 to linear peptides of protein X4 of SARS-CoV Urbani / Binding of serum 37 to looped/cyclic peptides of protein X4 of SARS-CoV Urbani / Binding of serum 6 to linear peptides of protein X5 of SARS-CoV Urbani / Binding of serum 37 to linear peptides of protein X5 of SARS-CoV Urbani / Binding of serum 37 to looped/cyclic peptides of protein X5 of SARS-CoV Urbani / Binding of serum 6 to linear peptides of protein N of SARS-CoV Urbani / Binding of serum 37 to linear peptides of protein N of SARS-CoV Urbani / Binding of serum 6 to linear peptide (PEPSCAN-ELISA) / Binding of serum 1a to looped/cyclic peptides of protein N of SARS-CoV Urbani / Binding of serum 1b to looped/cyclic peptides of protein N of SARS-CoV Urbani / Binding of serum 2 to looped/cyclic peptides of protein N of SARS-CoV Urbani / Binding of serum 6 to looped/cyclic peptides of protein N of SARS-CoV Urbani / Binding of serum 37 to looped/cyclic peptides of protein N of SARS-CoV Urbani / Binding of serum 62 to looped/cyclic peptides of protein N of SARS-CoV Urbani / Binding of serum London to looped/cyclic peptides of protein N of SARS-CoV Urbani / Binding of serum SARS-green to looped/cyclic peptides of protein N of SARS-CoV Urbani: unit not given here
[2] = tested on: rabbit serum obtained by immunizing a rabbit with the SARS-CoV strain Frankfurt 1; assay type: binding; set-up: Binding of a rabbit serum to linear peptides / Binding of a rabbit serum to looped peptides / Rabbit serum linear peptides / Rabbit serum looped peptides / Binding of a rabbit serum to linear peptides of protein N of SARS-CoV Urbani (Rabbit serum linear peptides) / Binding of a rabbit serum to looped/cyclic peptides of protein N of SARS-CoV Urbani (Rabbit serum looped peptides): unit not given here
[3] = tested on: control sera (pooled serum of ten healthy LUMC hospital workers; commercial negative donor pooled serum from the Dutch bloodbank); assay type: binding, human; set-up: Binding of Control serum LUMC to linear peptides / Binding of Control serum Blood-bank to linear peptides / Binding of Control serum LUMC to looped peptides / Binding of Control Serum Blood-Bank to Looped peptides / Binding of Control serum LUMC to linear peptides of the protein M of SARS-CoV Urbani / Binding of Control serum Blood-bank to linear peptides of the protein M of SARS-CoV Urbani / Binding of Control serum LUMC to looped peptides of the protein M of SARS-CoV Urbani / Binding of Control Serum Blood-Bank to Looped peptides of the protein M of SARS-CoV Urbani: unit not given here

FLWLLWPVTLACFVL
Binding of serum 1a to linear peptides of protein M of SARS-CoV Urbani [1]: 0.6 | Binding of serum 1a to looped/cyclic peptides of protein M of SARS-CoV Urbani [1]: 0.6 | Binding of serum 1b to linear peptides of protein M of SARS-CoV Urbani [1]: 0.4 | Binding of serum 1b to looped/cyclic peptides of protein M of SARS-CoV Urbani [1]: 0.5 | Binding of serum 2 to linear peptides of protein M of SARS-CoV Urbani [1]: 0.5 | Binding of serum 2 to looped/cyclic peptides of protein M of SARS-CoV Urbani [1]: 0.6 | Binding of serum 6 to linear peptides of protein M of SARS-CoV Urbani [1]: 0.3 | Binding of serum 6 to looped/cyclic peptides of protein M of SARS-CoV Urbani [1]: 0.4 | Binding of serum 37 to linear peptides of protein M of SARS-CoV Urbani [1]: 0.6 | Binding of serum 37 to looped/cyclic peptides of protein M of SARS-CoV Urbani [1]: 0.6 | Binding of serum 62 to linear peptides of protein M of SARS-CoV Urbani [1]: 0.7 | Binding of serum 62 to looped/cyclic peptides of protein M of SARS-CoV Urbani [1]: 0.6 | Binding of serum London to linear peptides of protein M of SARS-CoV Urbani [1]: 0.4 | Binding of serum London to looped/cyclic peptides of protein M of SARS-CoV Urbani [1]: 0.2 | Binding of serum SARS-green to linear peptides of protein M of SARS-CoV Urbani [1]: 0.2 | Binding of serum SARS-green to looped/cyclic peptides of protein M of SARS-CoV Urbani [1]: 0.2 | Binding of serum SARS-yellow to linear peptides of protein M of SARS-CoV Urbani [1]: 0.1 | Binding of serum SARS-yellow to looped/cyclic peptides of protein M of SARS-CoV Urbani [1]: 0.7 | Rabbit serum linear peptides [2]: 0.3 | Rabbit serum looped peptides [2]: 0.4 | Binding of Control Serum Blood-Bank to Looped peptides of the protein M of SARS-CoV Urbani [3]: 0.5 | Binding of Control serum Blood-bank to linear peptides of the protein M of SARS-CoV Urbani [3]: 0.4 | Binding of Control serum LUMC to linear peptides of the protein M of SARS-CoV Urbani [3]: 0.2 | Binding of Control serum LUMC to looped peptides of the protein M of SARS-CoV Urbani [3]: 0.7

FMMSRRRLLACLCKH
Binding of serum 1a to linear peptides of protein X2 [1]: 0.7 | Binding of serum 1a to looped/cyclic peptides of protein X2 of SARS-CoV Urbani [1]: 0.4 | Binding of serum 1b to linear peptides of protein X2 [1]: 0.5 | Binding of serum 1b to looped/cyclic peptides of protein X2 of SARS-CoV Urbani [1]: 0.4 | Binding of serum 2 to linear peptides of protein X2 [1]: 0.5 | Binding of serum 2 to looped/cyclic peptides of protein X2 of SARS-CoV Urbani [1]: 0.3 | Binding of serum 6 to linear peptides of protein X2 [1]: 0.7 | Binding of serum 6 to looped/cyclic peptides of protein X2 of SARS-CoV Urbani [1]: 0.5 | Binding of serum 37 to linear peptides of protein X2 [1]: 0.6 | Binding of serum 37 to looped/cyclic peptides of protein X2 of SARS-CoV Urbani [1]: 0.3 | Binding of serum 62 to linear peptides of protein X2 [1]: 0.6 | Binding of serum 62 to looped/cyclic peptides of protein X2 of SARS-CoV Urbani [1]: 0.4 | Binding of serum London to linear peptides of protein X2 [1]: 0.7 | Binding of serum London to looped/cyclic peptides of protein X2 of SARS-CoV Urbani [1]: 1.2 | Binding of serum SARS-green to linear peptides of protein X2 [1]: 0.5 | Binding of serum SARS-green to looped/cyclic peptides of protein X2 of SARS-CoV Urbani [1]: 0.3 | Binding of serum SARS-yellow to linear peptides of protein X2 [1]: 0.5 | Binding of serum SARS-yellow to looped/cyclic peptides of protein X2 of SARS-CoV Urbani [1]: 0.5 | Binding of a rabbit serum to linear peptides [2]: 0.4 | Binding of a rabbit serum to looped peptides [2]: 0.6 | Binding of Control Serum Blood-Bank to Looped peptides [3]: 0.6 | Binding of Control serum Blood-bank to linear peptides [3]: 0.7 | Binding of Control serum LUMC to linear peptides [3]: 0.4 | Binding of Control serum LUMC to looped peptides [3]: 0.5

FRIAIWNLDVIISSI
Binding of serum 1a to linear peptides of protein X3 of SARS-CoV Urbani [1]: 0.8 | Binding of serum 1a to looped/cyclic peptides of protein X3 of SARS-CoV Urbani [1]: 0.7 | Binding of serum 1b to linear peptides of protein X3 of SARS-CoV Urbani [1]: 0.5 | Binding of serum 1b to looped/cyclic peptides of protein X3 of SARS-CoV Urbani [1]: 0.5 | Binding of serum 2 to linear peptides of protein X3 of SARS-CoV Urbani [1]: 0.6 | Binding of serum 2 to looped/cyclic peptides of protein X3 of SARS-CoV Urbani [1]: 0.7 | Binding of serum 6 to linear peptides of protein X3 of SARS-CoV Urbani [1]: 0.4 | Binding of serum 6 to looped/cyclic peptides of protein X3 of SARS-CoV Urbani [1]: 0.3 | Binding of serum 37 to linear peptides of protein X3 of SARS-CoV Urbani [1]: 0.5 | Binding of serum 37 to looped/cyclic peptides of protein X3 of SARS-CoV Urbani [1]: 0.6 | Binding of serum 62 to linear peptides of protein X3 of SARS-CoV Urbani [1]: 0.7 | Binding of serum 62 to looped/cyclic peptides of protein X3 of SARS-CoV Urbani [1]: 0.6 | Binding of serum London to linear peptides of protein X3 of SARS-CoV Urbani [1]: 0.7 | Binding of serum London to looped/cyclic peptides of protein X3 of SARS-CoV Urbani [1]: 0.2 | Binding of serum SARS-green to linear peptides of protein X3 of SARS-CoV Urbani [1]: 0.4 | Binding of serum SARS-green to looped/cyclic peptides of protein X3 of SARS-CoV Urbani [1]: 0.2 | Binding of serum SARS-yellow to linear peptides of protein X3 of SARS-CoV Urbani [1]: 0.7 | Binding of serum SARS-yellow to looped/cyclic peptides of protein X3 of SARS-CoV Urbani [1]: 0.8 | Rabbit serum linear peptides [2]: 0.3 | Rabbit serum looped peptides [2]: 0.2 | Binding of Control Serum Blood-Bank to Looped peptides of the protein X3 of SARS-CoV Urbani [3]: 0.8 | Binding of Control serum Blood-bank to linear peptides of the protein X3 of SARS-CoV Urbani [3]: 0.7 | Binding of Control serum LUMC to linear peptides of the protein X3 of SARS-CoV Urbani [3]: 0.6 | Binding of Control serum LUMC to looped peptides of the protein X3 of SARS-CoV Urbani [3]: 0.7
